Assay: diphenylpicrylhydrazyl (DPPH) radical scavenging assay
Type: biochemical
Details: read-out: antioxidant activity, IC50

## O=C1O[C@H]([C@@H](O)CO)C(O)=C1O [vitamin C, Ascorbic acid]
  IC50: 58 µM

## Cc1cc(C(C)(C)C)c(O)c(C(C)(C)C)c1 [butylatedhydroxytoluene]
  IC50: 2650 µM
